Where two headings read alike, the source gives them in different places.
What was measured:
Test in all cases: biochemical
DYRK2 = target: T1, DYRK2 (Homo sapiens, UniProt Q92630)
T1 sequence (Q92630 1-601): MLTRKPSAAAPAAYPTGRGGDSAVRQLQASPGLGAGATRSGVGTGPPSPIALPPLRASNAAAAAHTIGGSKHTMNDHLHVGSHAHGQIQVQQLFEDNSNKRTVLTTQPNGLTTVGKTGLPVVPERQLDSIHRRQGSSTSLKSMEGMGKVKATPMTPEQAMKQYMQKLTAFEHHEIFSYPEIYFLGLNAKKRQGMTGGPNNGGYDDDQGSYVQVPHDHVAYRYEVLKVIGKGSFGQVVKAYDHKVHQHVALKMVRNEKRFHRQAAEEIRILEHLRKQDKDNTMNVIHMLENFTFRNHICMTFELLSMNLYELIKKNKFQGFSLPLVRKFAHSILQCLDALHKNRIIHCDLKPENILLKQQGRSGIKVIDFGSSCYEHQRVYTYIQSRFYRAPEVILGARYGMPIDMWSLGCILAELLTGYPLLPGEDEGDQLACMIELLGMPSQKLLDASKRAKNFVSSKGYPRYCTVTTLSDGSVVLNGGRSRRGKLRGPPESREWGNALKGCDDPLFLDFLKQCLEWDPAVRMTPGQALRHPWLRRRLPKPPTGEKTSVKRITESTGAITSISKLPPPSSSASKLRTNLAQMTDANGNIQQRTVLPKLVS

AKT3 = AKT3 (Homo sapiens, UniProt Q9Y243)
Erk7 = target: T2, Erk7 (Homo sapiens, UniProt Q8TD08)
T2 sequence (Q8TD08 1-544): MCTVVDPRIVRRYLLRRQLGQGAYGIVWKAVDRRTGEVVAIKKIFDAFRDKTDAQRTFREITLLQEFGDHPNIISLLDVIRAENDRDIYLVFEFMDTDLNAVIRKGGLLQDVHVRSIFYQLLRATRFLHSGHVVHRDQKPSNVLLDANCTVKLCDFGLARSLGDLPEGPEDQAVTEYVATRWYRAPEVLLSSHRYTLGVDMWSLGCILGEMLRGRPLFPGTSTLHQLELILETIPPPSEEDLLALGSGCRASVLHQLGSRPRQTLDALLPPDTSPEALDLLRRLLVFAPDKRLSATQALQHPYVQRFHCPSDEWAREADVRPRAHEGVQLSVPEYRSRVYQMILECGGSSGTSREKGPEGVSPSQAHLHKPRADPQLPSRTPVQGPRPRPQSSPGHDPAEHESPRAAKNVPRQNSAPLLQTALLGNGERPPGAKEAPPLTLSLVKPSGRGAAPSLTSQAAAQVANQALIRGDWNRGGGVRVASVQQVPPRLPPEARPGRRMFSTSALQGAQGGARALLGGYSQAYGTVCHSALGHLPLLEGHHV

GSK3B = GSK3B (Homo sapiens, UniProt P49841)
BRAF = BRAF (Homo sapiens, UniProt P15056)
BRD4 = BRD4 (Homo sapiens, UniProt O60885)
PIM3 = PIM3 (Homo sapiens, UniProt Q86V86)
EphA7 = EphA7 (Homo sapiens, UniProt Q15375)
JNK1 = JNK1 (Homo sapiens, UniProt P45983)
EpHA5 = EpHA5 (Homo sapiens, UniProt P54756)
JNK2 = JNK2 (Homo sapiens, UniProt P45984)
FES = FES (Homo sapiens, UniProt P07332)
MAPKAPK2 = MAPKAPK2 (Homo sapiens, UniProt P49137)
Erk2 = Erk2 (Homo sapiens, UniProt P28482)
CDK2 = CDK2 (Homo sapiens, UniProt P24941)
FGFR2 = FGFR2 (Homo sapiens, UniProt P21802)
CaMK1d = CaMK1d (Homo sapiens, UniProt Q8IU85)
Chain of CaMK1d (Q8IU85 whole entry): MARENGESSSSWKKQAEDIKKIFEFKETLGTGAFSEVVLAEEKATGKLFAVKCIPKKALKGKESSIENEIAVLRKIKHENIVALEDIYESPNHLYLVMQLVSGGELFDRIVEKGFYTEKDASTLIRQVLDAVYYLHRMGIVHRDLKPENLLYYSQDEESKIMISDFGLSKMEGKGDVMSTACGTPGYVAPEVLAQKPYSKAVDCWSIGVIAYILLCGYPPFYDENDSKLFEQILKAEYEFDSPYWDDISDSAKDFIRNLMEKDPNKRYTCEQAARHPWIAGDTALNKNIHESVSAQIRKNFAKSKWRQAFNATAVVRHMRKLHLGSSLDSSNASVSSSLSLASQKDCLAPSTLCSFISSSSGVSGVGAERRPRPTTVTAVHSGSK

Chain of JNK2 (P45984 whole entry): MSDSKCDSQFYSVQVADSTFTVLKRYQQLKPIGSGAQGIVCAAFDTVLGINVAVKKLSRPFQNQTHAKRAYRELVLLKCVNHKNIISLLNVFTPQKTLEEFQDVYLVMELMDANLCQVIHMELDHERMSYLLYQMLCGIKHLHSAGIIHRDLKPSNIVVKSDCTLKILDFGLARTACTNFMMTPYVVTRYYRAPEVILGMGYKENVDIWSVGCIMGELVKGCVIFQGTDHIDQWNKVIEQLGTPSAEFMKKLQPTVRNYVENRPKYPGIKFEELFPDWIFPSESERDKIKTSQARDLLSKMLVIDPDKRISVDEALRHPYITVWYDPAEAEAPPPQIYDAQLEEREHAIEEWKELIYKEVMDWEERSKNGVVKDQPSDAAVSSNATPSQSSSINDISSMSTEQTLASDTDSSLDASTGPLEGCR
Chain of EpHA5 (P54756 whole entry): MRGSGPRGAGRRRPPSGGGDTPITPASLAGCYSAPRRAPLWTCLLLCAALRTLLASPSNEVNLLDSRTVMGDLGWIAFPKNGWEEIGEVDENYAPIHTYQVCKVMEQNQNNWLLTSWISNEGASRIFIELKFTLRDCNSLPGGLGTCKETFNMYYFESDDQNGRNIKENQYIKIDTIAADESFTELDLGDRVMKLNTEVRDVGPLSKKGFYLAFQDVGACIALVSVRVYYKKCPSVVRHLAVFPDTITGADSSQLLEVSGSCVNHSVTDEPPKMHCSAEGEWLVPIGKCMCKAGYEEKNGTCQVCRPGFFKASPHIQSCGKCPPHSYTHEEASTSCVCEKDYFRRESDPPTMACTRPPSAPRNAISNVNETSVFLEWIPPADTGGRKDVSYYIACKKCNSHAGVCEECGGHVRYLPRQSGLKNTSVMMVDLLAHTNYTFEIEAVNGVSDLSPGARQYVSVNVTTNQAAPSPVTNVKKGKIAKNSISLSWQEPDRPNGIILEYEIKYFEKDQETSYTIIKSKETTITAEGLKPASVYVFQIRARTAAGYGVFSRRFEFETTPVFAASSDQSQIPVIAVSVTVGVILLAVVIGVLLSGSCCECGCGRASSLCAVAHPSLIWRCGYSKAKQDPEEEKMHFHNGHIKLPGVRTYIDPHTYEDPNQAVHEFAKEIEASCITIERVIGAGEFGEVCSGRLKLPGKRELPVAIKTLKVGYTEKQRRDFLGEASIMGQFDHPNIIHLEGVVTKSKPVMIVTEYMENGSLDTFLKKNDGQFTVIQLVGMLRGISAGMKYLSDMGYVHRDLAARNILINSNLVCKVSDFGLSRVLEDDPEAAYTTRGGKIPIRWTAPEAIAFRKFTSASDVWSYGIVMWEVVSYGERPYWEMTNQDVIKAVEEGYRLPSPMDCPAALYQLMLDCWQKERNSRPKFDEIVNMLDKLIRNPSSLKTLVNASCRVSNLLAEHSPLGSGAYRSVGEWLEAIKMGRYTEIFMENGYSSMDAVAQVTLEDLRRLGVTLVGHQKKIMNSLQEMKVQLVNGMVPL
Chain of FES (P07332 whole entry): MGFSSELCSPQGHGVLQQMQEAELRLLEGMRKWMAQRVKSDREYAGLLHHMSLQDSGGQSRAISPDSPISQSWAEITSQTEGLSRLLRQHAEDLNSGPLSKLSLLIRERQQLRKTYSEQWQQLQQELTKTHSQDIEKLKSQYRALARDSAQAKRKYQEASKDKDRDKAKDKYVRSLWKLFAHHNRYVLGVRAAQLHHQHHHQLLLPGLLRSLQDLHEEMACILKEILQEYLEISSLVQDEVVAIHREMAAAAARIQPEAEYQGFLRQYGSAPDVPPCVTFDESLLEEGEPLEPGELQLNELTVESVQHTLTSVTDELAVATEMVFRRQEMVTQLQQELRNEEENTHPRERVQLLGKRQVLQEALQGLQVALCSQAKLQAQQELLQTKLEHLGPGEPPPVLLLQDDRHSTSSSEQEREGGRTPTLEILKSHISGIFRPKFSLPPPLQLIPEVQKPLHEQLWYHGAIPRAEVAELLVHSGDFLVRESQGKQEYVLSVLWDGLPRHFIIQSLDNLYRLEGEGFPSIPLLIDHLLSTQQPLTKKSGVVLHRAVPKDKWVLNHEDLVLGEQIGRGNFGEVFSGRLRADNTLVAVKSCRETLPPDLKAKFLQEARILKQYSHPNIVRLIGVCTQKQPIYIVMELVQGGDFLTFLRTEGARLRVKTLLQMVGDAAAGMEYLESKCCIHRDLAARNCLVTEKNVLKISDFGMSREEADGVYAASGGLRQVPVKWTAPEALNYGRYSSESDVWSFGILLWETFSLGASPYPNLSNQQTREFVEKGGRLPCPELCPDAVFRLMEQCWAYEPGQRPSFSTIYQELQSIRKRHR
Chain of AKT3 (Q9Y243 whole entry): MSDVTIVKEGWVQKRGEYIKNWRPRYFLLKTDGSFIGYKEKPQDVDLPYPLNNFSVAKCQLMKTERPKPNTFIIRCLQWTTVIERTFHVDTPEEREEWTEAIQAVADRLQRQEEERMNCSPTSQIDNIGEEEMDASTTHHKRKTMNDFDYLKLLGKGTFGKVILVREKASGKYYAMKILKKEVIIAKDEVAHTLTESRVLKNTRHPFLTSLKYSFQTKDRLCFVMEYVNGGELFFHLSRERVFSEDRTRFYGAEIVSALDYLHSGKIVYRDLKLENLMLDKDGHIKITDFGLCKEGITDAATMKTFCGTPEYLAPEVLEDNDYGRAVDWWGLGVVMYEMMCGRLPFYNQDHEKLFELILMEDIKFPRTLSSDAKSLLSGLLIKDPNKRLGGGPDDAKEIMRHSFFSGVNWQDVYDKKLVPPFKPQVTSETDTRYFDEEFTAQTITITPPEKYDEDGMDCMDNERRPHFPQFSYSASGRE
Chain of MAPKAPK2 (P49137 whole entry): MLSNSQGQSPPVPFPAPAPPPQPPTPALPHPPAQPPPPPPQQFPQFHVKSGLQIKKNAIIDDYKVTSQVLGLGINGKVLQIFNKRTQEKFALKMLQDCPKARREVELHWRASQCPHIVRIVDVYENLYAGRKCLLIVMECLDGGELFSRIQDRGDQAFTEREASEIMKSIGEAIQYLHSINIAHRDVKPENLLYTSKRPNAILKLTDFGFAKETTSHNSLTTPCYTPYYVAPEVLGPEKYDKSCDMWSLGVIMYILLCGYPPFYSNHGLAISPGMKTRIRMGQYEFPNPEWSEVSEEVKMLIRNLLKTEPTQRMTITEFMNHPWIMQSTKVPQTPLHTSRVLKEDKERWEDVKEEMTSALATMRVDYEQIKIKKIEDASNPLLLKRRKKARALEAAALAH
Chain of Erk2 (P28482 whole entry): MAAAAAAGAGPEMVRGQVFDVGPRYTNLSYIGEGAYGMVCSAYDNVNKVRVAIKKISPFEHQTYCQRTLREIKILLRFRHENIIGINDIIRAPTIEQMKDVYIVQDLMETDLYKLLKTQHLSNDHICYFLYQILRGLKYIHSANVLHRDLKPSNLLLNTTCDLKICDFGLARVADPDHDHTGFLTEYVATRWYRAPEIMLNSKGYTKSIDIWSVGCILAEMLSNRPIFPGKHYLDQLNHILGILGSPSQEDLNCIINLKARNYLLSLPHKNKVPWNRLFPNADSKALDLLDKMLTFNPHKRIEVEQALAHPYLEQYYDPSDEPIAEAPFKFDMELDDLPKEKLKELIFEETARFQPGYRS
Chain of GSK3B (P49841 whole entry): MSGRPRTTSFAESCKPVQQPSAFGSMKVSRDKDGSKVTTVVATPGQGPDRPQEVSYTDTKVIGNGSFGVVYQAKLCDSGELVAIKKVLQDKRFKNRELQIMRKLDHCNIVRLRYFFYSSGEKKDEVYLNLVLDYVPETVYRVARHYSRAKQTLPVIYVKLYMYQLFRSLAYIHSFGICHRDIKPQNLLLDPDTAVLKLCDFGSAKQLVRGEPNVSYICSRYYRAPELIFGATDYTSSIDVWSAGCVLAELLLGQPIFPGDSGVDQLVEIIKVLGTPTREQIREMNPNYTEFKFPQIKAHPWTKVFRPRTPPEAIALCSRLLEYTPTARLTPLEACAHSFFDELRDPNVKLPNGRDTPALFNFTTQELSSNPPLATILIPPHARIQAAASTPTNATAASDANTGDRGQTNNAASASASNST

Q: What does the source list for `CNc1ncc2cc(-c3cc(Cl)ccc3Cl)c(=O)n(CCCCN)c2n1` [compound 8, 8-(4-Aminobutyl)-6-(2,5-dichlorophenyl)-2-(methylamino)pyrido[2,3-d]pyrimidin-7(8H)-one]?
A: ΔTm at 10 µM (DYRK2; read-out: dTm 8): 0.1 °C; ΔTm at 10 µM (AKT3; read-out: dTm 8): 0 °C; ΔTm at 10 µM (Erk7; read-out: dTm 8): 0.3 °C; ΔTm at 10 µM (GSK3B; read-out: dTm 8): 1 °C; ΔTm at 10 µM (BRAF; read-out: dTm 8): 10.8 °C; ΔTm at 10 µM (BRD4; read-out: dTm 8): 1.3 °C; ΔTm at 10 µM (PIM3; read-out: dTm 8): 1 °C; ΔTm at 10 µM (EphA7; read-out: dTm 8): 0.5 °C; ΔTm at 10 µM (JNK1; read-out: dTm 8): 1.4 °C; ΔTm at 10 µM (EpHA5; read-out: dTm 8): 5.4 °C; ΔTm at 10 µM (JNK2; read-out: dTm 8): 1.2 °C; ΔTm at 10 µM (FES; read-out: dTm 8): 2.5 °C; ΔTm at 10 µM (MAPKAPK2; read-out: dTm 8): 0 °C; ΔTm at 10 µM (Erk2; read-out: dTm 8): 0.1 °C; ΔTm at 10 µM (CDK2; read-out: dTm 8): 0.6 °C; ΔTm at 10 µM (FGFR2; read-out: dTm 8): 4.1 °C; ΔTm at 10 µM (CaMK1d; read-out: dTm 8): 2.4 °C

Q: What does the source list for `CNc1ncc2cc(-c3cc(C(F)(F)F)ccc3Cl)c(=O)n(CCCCN)c2n1` [compound 9, 8-(4-Aminobutyl)-6-(2-chloro-5-(trifluoromethyl)phenyl)-2-(methylamino)pyrido[2,3-d]pyrimidin-7(8H)-one]?
A: ΔTm at 10 µM (DYRK2; read-out: dTm 9): 0 °C; ΔTm at 10 µM (AKT3; read-out: dTm 9): 0 °C; ΔTm at 10 µM (Erk7; read-out: dTm 9): 0.1 °C; ΔTm at 10 µM (GSK3B; read-out: dTm 9): 0.8 °C; ΔTm at 10 µM (BRAF; read-out: dTm 9): 10.4 °C; ΔTm at 10 µM (BRD4; read-out: dTm 9): 0.7 °C; ΔTm at 10 µM (PIM3; read-out: dTm 9): 0.4 °C; ΔTm at 10 µM (EphA7; read-out: dTm 9): 0.6 °C; ΔTm at 10 µM (JNK1; read-out: dTm 9): 0.6 °C; ΔTm at 10 µM (EpHA5; read-out: dTm 9): 2.6 °C; ΔTm at 10 µM (JNK2; read-out: dTm 9): 1 °C; ΔTm at 10 µM (FES; read-out: dTm 9): 1.4 °C; ΔTm at 10 µM (MAPKAPK2; read-out: dTm 9): -0.1 °C; ΔTm at 10 µM (Erk2; read-out: dTm 9): 0 °C; ΔTm at 10 µM (CDK2; read-out: dTm 9): 0.3 °C; ΔTm at 10 µM (FGFR2; read-out: dTm 9): 2.1 °C; ΔTm at 10 µM (CaMK1d; read-out: dTm 9): 2.3 °C

Q: What does the source list for `CNc1ncc2cc(-c3cc(Cl)ccc3Br)c(=O)n(CCCCN)c2n1` [compound 10, 8-(4-Aminobutyl)-6-(2-bromo-5-chlorophenyl)-2-(methylamino)pyrido[2,3-d]pyrimidin-7(8H)-one]?
A: ΔTm at 10 µM (DYRK2; read-out: dTm 10): 0 °C; ΔTm at 10 µM (AKT3; read-out: dTm 10): -0.1 °C; ΔTm at 10 µM (Erk7; read-out: dTm 10): 0.3 °C; ΔTm at 10 µM (GSK3B; read-out: dTm 10): 0.8 °C; ΔTm at 10 µM (BRAF; read-out: dTm 10): 11.4 °C; ΔTm at 10 µM (BRD4; read-out: dTm 10): 1.2 °C; ΔTm at 10 µM (PIM3; read-out: dTm 10): 0.8 °C; ΔTm at 10 µM (EphA7; read-out: dTm 10): 0.5 °C; ΔTm at 10 µM (JNK1; read-out: dTm 10): 0.8 °C; ΔTm at 10 µM (EpHA5; read-out: dTm 10): 5.5 °C; ΔTm at 10 µM (JNK2; read-out: dTm 10): 0.9 °C; ΔTm at 10 µM (FES; read-out: dTm 10): 2.5 °C; ΔTm at 10 µM (MAPKAPK2; read-out: dTm 10): 0 °C; ΔTm at 10 µM (Erk2; read-out: dTm 10): 0.1 °C; ΔTm at 10 µM (CDK2; read-out: dTm 10): 0.6 °C; ΔTm at 10 µM (FGFR2; read-out: dTm 10): 3.3 °C; ΔTm at 10 µM (CaMK1d; read-out: dTm 10): 2 °C

Q: With `CNc1ncc2cc(-c3cc(Br)ccc3Br)c(=O)n(CCCCN)c2n1` [compound 11, 8-(4-Aminobutyl)-6-(2,5-dibromophenyl)-2-(methylamino)pyrido[2,3-d]pyrimidin-7(8H)-one] as the molecule, how does the ΔTm at 10 µM (DYRK2; read-out: dTm 11) read?
A: 0 °C

Q: And the ΔTm at 10 µM (AKT3; read-out: dTm 11)?
A: -0.1 °C

Q: What about the ΔTm at 10 µM (Erk7; read-out: dTm 11) of the same molecule?
A: 0.3 °C

Q: What about the ΔTm at 10 µM (GSK3B; read-out: dTm 11) of the same molecule?
A: 0.8 °C

Q: And the ΔTm at 10 µM (BRAF; read-out: dTm 11)?
A: 11.6 °C

Q: What about the ΔTm at 10 µM (BRD4; read-out: dTm 11) of the same molecule?
A: 1 °C

Q: What about the ΔTm at 10 µM (PIM3; read-out: dTm 11) of the same molecule?
A: 0.9 °C

Q: And the ΔTm at 10 µM (EphA7; read-out: dTm 11)?
A: 0.6 °C

Q: What about the ΔTm at 10 µM (JNK1; read-out: dTm 11) of the same molecule?
A: 0.9 °C

Q: And the ΔTm at 10 µM (EpHA5; read-out: dTm 11)?
A: 4.7 °C

Q: And the ΔTm at 10 µM (JNK2; read-out: dTm 11)?
A: 1.2 °C

Q: And the ΔTm at 10 µM (FES; read-out: dTm 11)?
A: 2.8 °C

Q: And the ΔTm at 10 µM (MAPKAPK2; read-out: dTm 11)?
A: 0 °C

Q: And the ΔTm at 10 µM (Erk2; read-out: dTm 11)?
A: 0.1 °C

Q: What about the ΔTm at 10 µM (CDK2; read-out: dTm 11) of the same molecule?
A: 0.7 °C

Q: And the ΔTm at 10 µM (FGFR2; read-out: dTm 11)?
A: 3.4 °C

Q: And the ΔTm at 10 µM (CaMK1d; read-out: dTm 11)?
A: 2.3 °C

Q: Which ΔTm at 10 µM (DYRK2; read-out: dTm 12) does the source give for `CNc1ncc2cc(-c3cc(F)c(-c4cccc(C)n4)cc3F)c(=O)n(CCCCN)c2n1` [compound 12, 8-(4-Aminobutyl)-6-(2,5-difluoro-4-(6-methylpyridin-2-yl)phenyl)-2-(methylamino)pyrido[2,3-d]pyrimidin-7(8H)-one] here?
A: -0.2 °C

Q: And the ΔTm at 10 µM (AKT3; read-out: dTm 12)?
A: 1.2 °C

Q: And the ΔTm at 10 µM (Erk7; read-out: dTm 12)?
A: -1.3 °C

Q: And the ΔTm at 10 µM (GSK3B; read-out: dTm 12)?
A: 1.7 °C

Q: And the ΔTm at 10 µM (BRAF; read-out: dTm 12)?
A: 2.3 °C

Q: What about the ΔTm at 10 µM (BRD4; read-out: dTm 12) of the same molecule?
A: -2 °C

Q: What about the ΔTm at 10 µM (PIM3; read-out: dTm 12) of the same molecule?
A: -1.2 °C

Q: What about the ΔTm at 10 µM (EphA7; read-out: dTm 12) of the same molecule?
A: 2.3 °C

Q: What about the ΔTm at 10 µM (JNK1; read-out: dTm 12) of the same molecule?
A: 0.7 °C

Q: What about the ΔTm at 10 µM (EpHA5; read-out: dTm 12) of the same molecule?
A: 3.2 °C

Q: What about the ΔTm at 10 µM (JNK2; read-out: dTm 12) of the same molecule?
A: 0.2 °C

Q: And the ΔTm at 10 µM (FES; read-out: dTm 12)?
A: 5.4 °C

Q: What about the ΔTm at 10 µM (MAPKAPK2; read-out: dTm 12) of the same molecule?
A: -0.3 °C

Q: What about the ΔTm at 10 µM (Erk2; read-out: dTm 12) of the same molecule?
A: -1.8 °C

Q: And the ΔTm at 10 µM (CDK2; read-out: dTm 12)?
A: 1.1 °C

Q: What about the ΔTm at 10 µM (FGFR2; read-out: dTm 12) of the same molecule?
A: 1.1 °C

Q: What about the ΔTm at 10 µM (CaMK1d; read-out: dTm 12) of the same molecule?
A: 3.1 °C

Reference: article doi:10.1101/2023.03.24.534094v2 (biorxiv, 2023)
